Experimental data as given in patent publication US5719287A, “Intermediates for inhibitors of HIV protease and method of preparation thereof” (Eli Lilly and Company, priority 1995, dated 1998).

Target: T1, HIV-1 protease (Human immunodeficiency virus type 1 group M subtype B, UniProt P04585)
T1 construct: Purified HIV-1 protease was obtained as described below; made in house; host or cells: E. coli K12 L507/pHP10D (NRRL B-18560)
Experiment: biochemical
Settings: purified HIV-1 protease, MES-ALB buffer pH 5.5; 1 h preincubation, 16 h with substrate, room temperature; IC50 values for Examples 2-70 are standardized relative to Ex 1
Experimental: N^α -Biotin-[…]Ne-FITC)-OH
The purified peptide was labeled as follows with a fluorescent marker at the C-terminal end for use in the assay. N^α -Biotin-Gly-Ser-Gln-Asn-Tyr-Pro-lle-Val-Gly-Lys-OH (1.206 g, 0.936 mmoles) was dissolved in 100 mL of 0.1M sodium borate, pH 9.5 with stirring. Then, 3 g of fluorescein isothiocyanate (7.7 mmol) was dissolved in 15 mL dimethyl sulfoxide and the solution added to the reaction in 10 equal portions over the course of a two hour period. The reaction was allowed to proceed for a further one hour after the final addition had been made. The pH of the solution was adjusted to 3 with 5N HCl. A precipitate formed which was removed from the reaction by centrifugation.
Fluorescence HIV-1 Protease Inhibitor Assay Procedure.
To each well of a round bottom, 96-well plate is added 20 μl of the Enzyme Solution followed by 10 μl of the compound to be evaluated in 20% aqueous DMSO. Purified HIV-1 protease was obtained as described below. The solution is incubated for one hour at room temperature and then 20 μl of a solution of the substrate N^α -Biotin-[…]N^e -FITC)-OH, in MES-ALB buffer (1.5 μl/ml) is added to each well. The solutions are incubated for 16 hours at room temperature and thereafter to each well is added 150 μl of MES-ALB buffer.
To each well of a 96-well Pandex plate is added 25 μl of the Avidin Coated Beads Solution. Next, 25 μl of the diluted incubation solutions, described above, are added to each well of the Pandex plate. The solutions are mixed well and the plates are loaded into a Pandex® machine, washed, evacuated and read. Sample detection was performed by excitation at 485 nm and reading the resulting epifluorescence at 535 nm.
A culture of E. coli K12 L507/pHP10D was grown to mid-log phase at 32° C. in LB media containing 12.5 μg/ml tetracycline. The cultivation temperature was quickly elevated to 40° C. to induce gene expression, and the cells were allowed to grow for 2.5 hours at this temperature before the culture was quickly chilled on ice. The cells were centrifuged and the cell pellet was resuspended in 20 ml 50 mmol MES buffer (pH 6.0) containing 1 mmol EDTA, 1 mmol DTT, 1 mmol PMSF, and 10% glycerol (Buffer A). Cells were lysed by sonication using a Fischer Model 300 Dismembrator and a microtip probe. […] Enzymatic activity was measured by HPLC using the synthetic peptide SQNYPIV as described in Margolin et al., Biochem. Biophys. Res. Commun., 167, 554-560 (1990); the production of the pl peptide (SQNY) was measured.
Active fractions were pooled, made 1.2M in ammonium sulfate, and applied to a hexyl agarose column (2.0×18 cm) equilibrated in Buffer A containing 1.2M ammonium sulfate. The sample, in 125 ml (1.85 mg/ml), was loaded at a flow rate of 1 ml/min at 4° C. […] The column was then washed isocratically in Buffer A for 120 min. Active fractions were pooled, concentrated to 10 ml using an Amicon stirred cell with a YM-10 membrane, and applied at 1 ml/min to a MonoS cation exchange column (1.0×10 cm) equilibrated in Buffer A. After washing isocratically for 30 min, protease was eluted using a linear gradient of 0-0.45M NaCl in Buffer A over 40 min followed by an isocratic wash with Buffer A containing 0.45M NaCl over 30 min. Chromatography was performed at 25° C.
Pooled active fractions were concentrated to 200 ul using an Amicon stirred cell and a YM-10 membrane, and the protease was then applied to a Superose 6 size exclusion column equilibrated in Buffer A containing 0.1M NaCl. The column was washed isocratically in this buffer at a flow rate of 0.5 ml/min.

In the case of `CC(C)(C)NC(=O)c1ccccc1C[C@@H](O)[C@H](Cc1ccccc1)NC(=O)[C@H](CC(N)=O)NC(=O)OCc1ccccc1` (relative stereo) [Example 11, [2R-(2R*, 3S*, 6S*)]-N-t-butyl-2-(2-hydroxy-3-phenylmethyl-4-aza-5-oxo-6-(2-amino-2-oxomethyl)-6-phenylmethoxycarbonyl)hexyl)benzamide], the “Fluorescence Assay IC50” value is reported as 0.01 µg/mL.

Same assay, conditions: read-out: Fluorescence Assay IC50 (converted)

`CC(C)(C)NC(=O)c1cc2ccccc2cc1C[C@@H](O)[C@H](Cc1ccccc1)NC(=O)[C@H](CC(N)=O)NC(=O)c1ccc2ccccc2n1` (relative stereo) [Example 5, 1S-(1R*. 4R*, 5S*)]-N-(1-(2-amino-2-oxoethyl)-2-oxo-3-aza-4-phenylmethyl-5-hydroxy-6-(3-(1-t-butylamino-1-oxomethyl)-2-naphthyl)hexyl)-2-quinolinyl carboxamide] and `CC(C)(C)NC(=O)c1ccccc1C[C@@H](O)[C@H](Cc1ccc(OCc2ccccc2)cc1)NC(=O)[C@H](CC(N)=O)NC(=O)c1ccc2ccccc2n1` [Example 9, [1S-(1R*, 4R*, 5S*)]-N-(1-(2-amino-2-oxoethyl)-2-oxo-3-aza-4-(4-phenylmethyloxy)phenylmethyl-5-hydroxy-6-(2-(1-t-butylamino-1-oxomethyl)phenyl)hexyl)-2-quinolinyl carboxamide] are within 1.5-fold of each other in IC50: 0.0127 µM for the first, 0.012 µM for the second.

Going from `CC(C)(C)NC(=O)c1ccccc1C[C@@H](O)[C@H](Cc1ccccc1)NC(=O)[C@H](CC(N)=O)NC(=O)C1Cc2ccccc2CN1` (single isomer, unassigned) [Example 36, [1S-(1R*, 4R*, 5S*)]-N-(1-(2-amino-2-oxoethyl)-2-oxo-3-aza-4-phenylmethyl-5-hydroxy-6-(2-(1-t-butylamino-1-oxomethyl)phenyl)hexyl)-3-(1,2,3,4-tetrahydroisoquinolinyl) carboxamide] to `CC(C)(C)NC(=O)c1ccccc1C[C@@H](O)[C@H](Cc1ccccc1)NC(=O)[C@H](CC(N)=O)NC(=O)c1cc2ccccc2[nH]1` [Example 21, [1S-(1R*, 4R*. 5S*)]-N-(1-(2-amino-2-oxoethyl)-2-oxo-3-aza-4-phenylmethyl-5-hydroxy-6-(2-(1-t-butylamino-1-oxomethyl)phenyl)hexyl)-2-indolyl carboxamine], the IC50 falls from 1.06 µM to 0.00418 µM (250-fold).

Compared with `CC(C)(C)NC(=O)c1ccccc1C[C@@H](O)[C@H](Cc1ccccc1)NC(=O)[C@H](CC(N)=O)NC(=O)C1Cc2ccccc2CN1` (single isomer, unassigned) [Example 37, [1S-(1R*, 4R*, 5S*)]-N-(1-(2-amino-2-oxoethyl)-2-oxo-3-aza-4-phenylmethyl-5-hydroxy-6-(2-(1-t-butylamino-1-oxomethyl)phenyl)hexyl)-3-(1,2,3,4-tetrahydroisoquinolinyl) carboxamide], `CC(C)(C)NC(=O)c1ccccc1C[C@@H](O)[C@H](Cc1ccccc1)NC(=O)[C@H](CC(N)=O)NC(=O)c1cc2ccccc2s1` [Example 22, [1S-(1R*, 4R*, 5S*)]-N-(1-(2-amino-2-oxoethyl)-2-oxo-3-aza-4-phenylmethyl-5-hydroxy-6-(2-(1-t-butylamino-1-oxomethyl)phenyl)hexyl)-2-benzo[b]thienyl carboxamide] is 3.2-fold lower in IC50: 0.0342 µM for the first, 0.0107 µM for the second.

Going from `CC(C)(C)NC(=O)c1ccccc1C[C@@H](O)[C@H](Cc1ccccc1)NC(=O)[C@H](CC(N)=O)NC(=O)c1ccc2ccccc2[n+]1[O-]` [Example 7, [1S-(1R*, 4R*, 5S*)]-N-(1-(2-amino-2-oxoethyl)-2-oxo-3-aza-4-phenylmethyl-5-hydroxy-6-(2-(1-t-butylamino-1-oxomethyl)phenyl)hexyl)-1-oxo-2-quinolinyl carboxamide] to `CC(C)(C)NC(=O)c1ccccc1C[C@@H](O)[C@H](Cc1ccccc1)NC(=O)[C@H](CC(N)=O)NC(=O)c1ccc2ccccc2c1` [Example 19, [1S-(1R*, 4R*, 5S*)]-N-(1-(2-amino-2-oxoethyl)-2-oxo-3-aza-4-phenylmethyl-5-hydroxy-6-(2-(1-t-butylamino-1-oxomethyl)phenyl)hexyl)-2-naphthyl carboxamide], the IC50 falls from 0.0288 µM to 0.00345 µM (8.3-fold).

Going from `CC(C)(C)NC(=O)c1ccccc1C[C@@H](O)[C@H](Cc1ccc(O)cc1)NC(=O)[C@H](CC(N)=O)NC(=O)c1ccc2ccccc2n1` [Example 10, [1S-(1R*, 4R*. 5S*) ]-N-(1-(2-amino-2-oxoethyl)-2-oxo-3-aza-4-(4-hydroxyphenyl)methyl-5-hydroxy-6-(2-(1-t-butylamino-1-oxomethyl)phenyl)hexyl)-2-quinolinyl carboxamide] to `Cc1ccc2ccc(C(=O)N[C@@H](CC(N)=O)C(=O)N[C@@H](Cc3ccccc3)[C@H](O)Cc3ccccc3C(=O)NC(C)(C)C)nc2c1` [Example 23, [1S-(1R*, 4R*, 5S*)]-N-(1-(2-amino-2-oxoethyl)-2-oxo-3-aza-4-phenylmethyl-5-hydroxy-6-(2-(1-t-butylamino-1-oxomethyl)phenyl)hexyl)-7-methylquinolin-2-yl carboxamide], the IC50 falls from 0.0943 µM to 0.000641 µM (150-fold).

Going from `CC(C)(C)NC(=O)c1ccccc1C[C@@H](O)[C@H](Cc1ccccc1)NC(=O)[C@H](CO)NC(=O)OCc1ccccc1` [Example 12, [2R-(2R*, 3S*, 6S*)]-N-t-butyl-2-(2-hydroxy-3-phenylmethyl-4-aza-5-oxo-6-hydroxymethyl-6-(N-phenylmethoxycarbonyl-amino)hexyl)benzamide] to `Cc1cc(C(=O)N[C@@H](CC(N)=O)C(=O)N[C@@H](Cc2ccccc2)[C@H](O)Cc2ccccc2C(=O)NC(C)(C)C)nc2ccccc12` [Example 26, [1S-(1R*, 4R*, 5S*)]-N-(1-(2-amino-2-oxoethyl)-2-oxo-3-aza-4-phenylmethyl-5-hydroxy-6-(2-(1-t-butylamino-1-oxomethyl)phenyl)hexyl)-4-methylquinolin-2-yl carboxamide], the IC50 falls from 0.89 µM to 0.00112 µM (790-fold).

Going from `CC(C)(C)C(=O)Nc1ccccc1C[C@@H](O)[C@H](Cc1ccccc1)NC(=O)[C@H](CC(N)=O)NC(=O)c1ccc2ccccc2n1` [Example 18, [1S-(1R*, 4R*, 5S*)]-N-(1-(2-amino-2-oxoethyl)-2-oxo-3-aza-4-phenylmethyl-5-hydroxy-6-(2-(2,2-dimethyl-1-oxopropylamino)phenyl)hexyl)-2-quinolinyl carboxamide] to `Cc1cccc2ccc(C(=O)N[C@@H](CC(N)=O)C(=O)N[C@@H](Cc3ccccc3)[C@H](O)Cc3ccccc3C(=O)NC(C)(C)C)nc12` [Example 24, [1S-(1R*, 4R*, 5S*)]-N-(1-(2-amino-2-oxoethyl)-2-oxo-3-aza-4-phenylmethyl-5-hydroxy-6-(2-(1-t-butylamino-1-oxomethyl)phenyl)hexyl)-8-methylquinolin-2-yl carboxamide], the IC50 falls from 0.0508 µM to 0.000481 µM (110-fold).

Compared with `CC(C)(C)NC(=O)c1ccccc1C[C@@H](O)[C@H](Cc1ccccc1)NC(=O)[C@H](CC(N)=O)NC(=O)c1cnc2ccccc2n1` [Example 20, [1S-(1R*, 4R*, 5S*)]-N-(1-(2-amino-2-oxoethyl)-2-oxo-3-aza-4-phenylmethyl-5-hydroxy-6-(2-(1-t-butylamino-1-oxomethyl)phenyl)hexyl)-2-quinoxalinyl carboxamide], `Cc1cc2ccccc2nc1C(=O)N[C@@H](CC(N)=O)C(=O)N[C@@H](Cc1ccccc1)[C@H](O)Cc1ccccc1C(=O)NC(C)(C)C` [Example 27, [1S-(1R*, 4R*. 5S*) ]-N-(1-(2-amino-2-oxoethyl)-2-oxo-3-aza-4-phenylmethyl-5-hydroxy-6-(2-(1-t-butylamino-1-oxomethyl)phenyl)hexyl)-3-methylquinolin-2-yl carboxamide] is 7.1-fold higher in IC50: 0.00115 µM for the first, 0.00818 µM for the second.
